Data taken from ChEMBL document CHEMBL4680289, “10-(4-Phenylpiperazine-1-carbonyl)acridin-9(10H)-ones and related compounds: Synthesis, antiproliferative activity and inhibition of tubulin polymerization” (Bioorg Med Chem Lett, 2021).
Calls of active or inactive are those of the source. No cut-off for these calls is given here.

What was measured:
[1] = Inhibition of porcine brain tubulin polymerization assessed as reduction in tubulin assembly at 37 degreeC measured after 40 mins in presence of GTP by turbidimetric analysis; design: species or system Sus scrofa
K562 [2] = assay: Antiproliferative activity against human K562 cells assessed as cell growth inhibition measured after 48 hrs by MTT assay; format: functional, cell-based; conditions: K562, 48 h
PANC-1 = assay: Antiproliferative activity against human PANC-1 cells assessed as cell growth inhibition measured after 72 hrs by sulforhodamine B assay; format: functional
Ramos = assay: Antiproliferative activity against human Ramos cells assessed as cell growth inhibition measured after 72 hrs by sulforhodamine B assay; format: functional
SNB-75 = assay: Antiproliferative activity against human SNB-75 cells assessed as cell growth inhibition measured after 72 hrs by sulforhodamine B assay; format: functional
[3] = Cytotoxicity against human PBMC cells assessed as cell growth inhibition measured after 72 hrs by sulforhodamine B assay; format: cell-based
Ca-Ski = assay: Antiproliferative activity against human Ca-Ski cells assessed as cell growth inhibition measured after 72 hrs by sulforhodamine B assay; format: functional
HT-1080 = assay: Antiproliferative activity against human HT-1080 cells assessed as cell growth inhibition measured after 72 hrs by sulforhodamine B assay; format: functional
MG-63 = assay: Antiproliferative activity against human MG-63 cells assessed as cell growth inhibition measured after 72 hrs by sulforhodamine B assay; format: functional
NCI-H460 = assay: Antiproliferative activity against human NCI-H460 cells assessed as cell growth inhibition measured after 72 hrs by sulforhodamine B assay; format: functional
K562 [4] = assay: Cell cycle arrest in human K562 cells assessed as increase in cell accumulation at G2/M phase measured after 18 hrs by propidium iodide/RNase FACSCalibur staining based flow cytometry; format: functional; conditions: dose 0.003-1 µmol/L
BXPC-3 = assay: Antiproliferative activity against human BXPC-3 cells assessed as cell growth inhibition measured after 72 hrs by sulforhodamine B assay; format: functional
L-363 = assay: Antiproliferative activity against human L-363 cells assessed as cell growth inhibition measured after 72 hrs by sulforhodamine B assay; format: functional
K562 [5] = assay: Cell cycle arrest in human K562 cells assessed as increase in cell accumulation at G2/M phase at < 30 nM measured after 18 hrs by propidium iodide/RNase FACSCalibur staining based flow cytometry; format: functional; conditions: dose nM <30, time 18.0 hrs
[6] = biological target: T1, Tubulin beta (Homo sapiens) (UniProt P68371+Q9H4B7+Q13509+P04350+Q3ZCM7+P07437+Q13885+Q9BVA1+Q9BUF5+A6NNZ2); assay: Inhibition of N,N'-Ethylenebis(iodoacetamide) binding to beta-tubulin colchicine binding site in human K562 cells assessed as reduction in EBI/beta-tubulin adduct formation at 1 to 10 uM preincubated for 2.5 hrs followed by EBI addition and measured after 1.5 hrs by Western blot analysis; format: cell-based; conditions: dose 1-10 µM, time 4.0 hrs
[7] = Antiproliferative activity against human RDES cells assessed as cell growth inhibition measured after 72 hrs by sulforhodamine B assay; format: functional; conditions: RD-ES
MV4-11 = assay: Antiproliferative activity against human MV4-11 cells assessed as cell growth inhibition measured after 72 hrs by sulforhodamine B assay; format: functional
HT-29 = assay: Antiproliferative activity against human HT-29 cells assessed as cell growth inhibition measured after 72 hrs by sulforhodamine B assay; format: functional
[8] = Cytotoxicity against human IMR-90 cells assessed as cell growth inhibition measured after 72 hrs by sulforhodamine B assay; format: cell-based
5637 = assay: Antiproliferative activity against human 5637 cells assessed as cell growth inhibition measured after 72 hrs by sulforhodamine B assay; format: functional
SK-N-AS = assay: Antiproliferative activity against human SK-N-AS cells assessed as cell growth inhibition measured after 72 hrs by sulforhodamine B assay; format: functional
DU-145 = assay: Antiproliferative activity against human DU-145 cells assessed as cell growth inhibition measured after 72 hrs by sulforhodamine B assay; format: functional
K562 [9] = assay: Induction of apoptosis in human K562 cells at 30 nM measured after 48 hrs by Annexin V-FITC/7-AAD staining based flow cytometric analysis; format: functional, cell-based
K562 [10] = assay: Induction of apoptosis in human K562 cells at 3 uM measured after 48 hrs by Annexin V-FITC/7-AAD staining based flow cytometric analysis; format: functional, cell-based
[11] = biological target: T1, Tubulin beta (Homo sapiens); assay: Inhibition of N,N'-Ethylenebis(iodoacetamide) binding to beta-tubulin colchicine binding site in human K562 cells assessed as reduction in EBI/beta-tubulin adduct formation preincubated for 2.5 hrs followed by EBI addition and measured after 1.5 hrs by Western blot analysis relative to control; format: cell-based; conditions: time 4.0 hrs, concentration not given here

## COc1ccccc1N1CCN(C(=O)n2c3ccccc3c(=O)c3cnccc32)CC1
[1]
  IC50: 3900 nM
K562 [2]
  IC50: 670 nM

## COc1cccc(C(=O)n2c3ccccc3c(=O)c3ccccc32)c1
[1]
  IC50: > 10000 nM
K562 [2]
  IC50: > 10000 nM

## COc1ccc(N2CCN(C(=O)n3c4ccccc4c(=O)c4ccccc43)CC2)cc1
[1]
  IC50: > 10000 nM
K562 [2]
  IC50: > 10000 nM

## COc1cccc(N2CCN(C(=O)n3c4ccccc4c(=O)c4ccccc43)CC2)c1
PANC-1
  GI50: 2.1 nM
Ramos
  GI50: 18 nM
SNB-75
  GI50: 12.4 nM
[1]
  IC50: 330 nM
[3]
  GI50 at 72 h: > 10 µM
Ca-Ski
  GI50: 12.3 nM
HT-1080
  GI50: 2.1 nM
MG-63
  GI50: 2 nM
NCI-H460
  GI50: 13.2 nM
K562 [4]
  Activity: Dose-dependent effect
BXPC-3
  GI50: 1.9 nM
L-363
  GI50: 14.8 nM
K562 [5]
  Activity: Active
K562 [2]
  IC50: 26 nM
[6]
  inhibition: Active
[7]
  GI50: 29.8 nM
MV4-11
  GI50: 13.5 nM
HT-29
  GI50: 2.1 nM
[8]
  GI50 at 72 h: 1.4 nM
5637
  GI50: 2.1 nM
SK-N-AS
  GI50: 1.3 nM
DU-145
  GI50: 17.9 nM

## COc1cccc(N2CCN(C(=O)n3c4ccccc4c(=O)c4cc([N+](=O)[O-])ccc43)CC2)c1
[1]
  IC50: 4200 nM
K562 [2]
  IC50: > 10000 nM

## N#Cc1cccc(N2CCN(C(=O)n3c4ccccc4c(=O)c4ccccc43)CC2)c1
[1]
  IC50: 520 nM
K562 [2]
  IC50: 45 nM

## COc1cccc(N2CCN(C(=O)n3c4ccccc4c(=O)c4cc(N)ccc43)CC2)c1
[1]
  IC50: 1250 nM
K562 [2]
  IC50: 440 nM

## COc1ccc(C(=O)n2c3ccccc3c(=O)c3cc(OC)ccc32)cc1
[1]
  IC50: 1400 nM
K562 [2]
  IC50: 3900 nM

## COc1ccc2c(c1)c(=O)c1cc(C#N)ccc1n2C(=O)N1CCN(c2ccccc2OC)CC1
[1]
  IC50: > 10000 nM
K562 [2]
  IC50: > 10000 nM

## COc1ccc2c(c1)c(=O)c1ccccc1n2C(=O)N1CCN(c2ccccc2OC)CC1
[1]
  IC50: 3500 nM
K562 [2]
  IC50: 1100 nM

## CC[C@]1(O)C[C@H]2CN(CCc3c([nH]c4ccccc34)[C@@](C(=O)OC)(c3cc4c(cc3OC)N(C)[C@H]3[C@@](O)(C(=O)OC)[C@H](OC(C)=O)[C@]5(CC)C=CCN6CC[C@]43[C@@H]65)C2)C1
[1]
  IC50: 130 nM
K562 [2]
  IC50: 12 nM

## O=C(N1CCN(c2cccc(Br)c2)CC1)n1c2ccccc2c(=O)c2ccccc21
[1]
  IC50: 690 nM
K562 [2]
  IC50: 39 nM

## COc1ccccc1N1CCN(C(=O)n2c3ccccc3c(=O)c3cccnc32)CC1
[1]
  IC50: 1340 nM
K562 [2]
  IC50: 190 nM

## COc1cc2c(c(OC)c1OC)-c1ccc(OC)c(=O)cc1[C@@H](NC(C)=O)CC2 [COLCHICINE]
K562 [9]
  Activity: Active
K562 [2]
  IC50: 13 nM

## COc1ccc(N2CCN(C(=O)n3c4ccccc4c(=O)c4ccccc43)CC2)c(OC)c1
[1]
  IC50: 4700 nM
K562 [2]
  IC50: 3000 nM

## COc1cccc(N2CCN(C(=O)n3c4ccccc4c(=O)c4cnccc43)CC2)c1
[1]
  IC50: 720 nM
K562 [2]
  IC50: 230 nM

## COc1ccccc1N1CCN(C(=O)n2c3ccccc3c(=O)c3cc(N)ccc32)CC1
[1]
  IC50: 3100 nM
K562 [2]
  IC50: 1300 nM

## COc1cccc(N2CCN(C(=O)n3c4ccccc4c(=O)c4cccnc43)CC2)c1
[1]
  IC50: 450 nM
K562 [2]
  IC50: 32 nM

## COc1ccc(C(=O)n2c3ccccc3c(=O)c3cc(C#N)ccc32)cc1
[1]
  IC50: 1700 nM
K562 [2]
  IC50: 1300 nM

## O=C(N1CCN(c2cccc(F)c2)CC1)n1c2ccccc2c(=O)c2ccccc21
[1]
  IC50: 710 nM
K562 [2]
  IC50: 89 nM

## Nc1ccc(N2CCN(C(=O)n3c4ccccc4c(=O)c4ccccc43)CC2)cc1
[1]
  IC50: > 10000 nM
K562 [2]
  IC50: > 10000 nM

## COc1cccc(N2CCN(C(=O)n3c4ccc(C#N)cc4c(=O)c4cc(OC)ccc43)CC2)c1
[1]
  IC50: > 10000 nM
K562 [2]
  IC50: > 10000 nM

## COc1ccccc1N1CCN(C(=O)n2c3ccccc3c(=O)c3cc([N+](=O)[O-])ccc32)CC1
[1]
  IC50: > 10000 nM
K562 [2]
  IC50: > 10000 nM

## COc1cccc(N2CCN(C(=O)n3c4ccccc4c(=O)c4cc(OC)ccc43)CC2)c1
[1]
  IC50: 820 nM
K562 [2]
  IC50: 330 nM

## COc1ccccc1N1CCN(C(=O)n2c3ccccc3c(=O)c3ccccc32)CC1
[1]
  IC50: 530 nM
K562 [2]
  IC50: 55 nM

## COc1ccccc1N1CCN(C(=O)n2c3ccccc3c(=O)c3cc(C#N)ccc32)CC1
[1]
  IC50: 3400 nM
K562 [2]
  IC50: 830 nM

## COc1ccc(OC)c(N2CCN(C(=O)n3c4ccccc4c(=O)c4ccccc43)CC2)c1
[1]
  IC50: 440 nM
K562 [2]
  IC50: 60 nM

## COc1cccc(N2CCN(C(=O)n3c4ccccc4c(=O)c4cc(C#N)ccc43)CC2)c1
K562 [2]
  IC50: 190 nM

## O=C(c1ccccc1)n1c2ccccc2c(=O)c2ccccc21
[1]
  IC50: > 10000 nM
K562 [2]
  IC50: > 10000 nM

## O=C(N1CCN(c2ccc(Cl)cc2)CC1)n1c2ccccc2c(=O)c2ccccc21
[1]
  IC50: > 10000 nM
K562 [2]
  IC50: 6100 nM

## O=C(N1CCN(c2ccc([N+](=O)[O-])cc2)CC1)n1c2ccccc2c(=O)c2ccccc21
[1]
  IC50: > 10000 nM
K562 [2]
  IC50: > 10000 nM

## COc1ccc(C(=O)n2c3ccccc3c(=O)c3ccccc32)cc1OC
[1]
  IC50: > 10000 nM
K562 [2]
  IC50: > 10000 nM

## COc1cc(N2CCN(C(=O)n3c4ccccc4c(=O)c4ccccc43)CC2)cc(OC)c1OC
[1]
  IC50: > 10000 nM
K562 [2]
  IC50: > 10000 nM

## COc1ccccc1C(=O)n1c2ccccc2c(=O)c2ccccc21
[1]
  IC50: 5500 nM
K562 [2]
  IC50: 3900 nM

## Nc1cccc(N2CCN(C(=O)n3c4ccccc4c(=O)c4ccccc43)CC2)c1
[1]
  IC50: 1300 nM
K562 [2]
  IC50: 900 nM

## COC(=O)Nc1nc2cc(C(=O)c3cccs3)ccc2[nH]1 [NOCODAZOLE]
[1]
  IC50: 760 nM
K562 [2]
  IC50: 220 nM

## COc1ccc(C(=O)n2c3ccccc3c(=O)c3ccccc32)cc1OCc1ccccc1
[1]
  IC50: > 10000 nM
K562 [2]
  IC50: > 10000 nM

## COc1ccc(C(=O)n2c3ccccc3c(=O)c3ccccc32)cc1O
[1]
  IC50: 680 nM
K562 [2]
  IC50: 1300 nM

## O=C(N1CCN(c2cccc([N+](=O)[O-])c2)CC1)n1c2ccccc2c(=O)c2ccccc21
[1]
  IC50: 560 nM
K562 [2]
  IC50: 200 nM

## COc1ccc(C(=O)n2c3ccccc3c(=O)c3ccccc32)cc1
[1]
  IC50: 1600 nM
K562 [10]
  Activity: Active
K562 [4]
  Activity: Dose-dependent effect
K562 [2]
  IC50: 1300 nM
[11]
  inhibition: 100%

## O=C(N1CCN(c2ccccc2)CC1)n1c2ccccc2c(=O)c2ccccc21
[1]
  IC50: 900 nM
K562 [2]
  IC50: 390 nM

## O=C(N1CCN(c2cccnc2)CC1)n1c2ccccc2c(=O)c2ccccc21
[1]
  IC50: 2900 nM
K562 [2]
  IC50: 620 nM

## O=C(N1CCN(c2cccc(Cl)c2)CC1)n1c2ccccc2c(=O)c2ccccc21
[1]
  IC50: 600 nM
K562 [2]
  IC50: 38 nM

## O=C(N1CCN(c2ccccc2Cl)CC1)n1c2ccccc2c(=O)c2ccccc21
[1]
  IC50: 7100 nM
K562 [2]
  IC50: 4800 nM
